From patent publication US11384060B2, “Amide compounds and use thereof” (ALPHALA CO., LTD., priority 2017, dated 2022)
Like-named read-outs stand apart in the source and are kept apart here.

Assays:
glucagon receptor (GCGR) = target: T1, glucagon receptor (GCGR) (Homo sapiens, UniProt P47871); assay: I125-glucagon binding assay (competition, GCGR membrane fractions)
T1 construct: expressed in transfected cells; host or cells: CHO-K1 cells overexpressing GCGR (membrane fractions)
Summary of the method: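 Membranes from CHO-K1 cells overexpressing GCGR, 7.5 μg/well in 50 mM Tris pH 7.4 with 0.5% BSA, were preincubated 5 min with serially diluted compounds, then given 0.0625 nM final I^125-glucagon for 30 min at 25° C. Bound label was filtered on PEI-coated GF/B and counted; IC50 by non-linear regression.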

[1] = target: T2, glucagon receptor (GCGR) overexpressed CHO-K1 cells or human primary hepatocytes (Homo sapiens, UniProt P47871); assay: Glucagon cAMP inhibition assay (Cisbio cAMP Dynamic 2 HTRF); format: cell-based
T2 construct: expressed in transfected cells; host or cells: GCGR overexpressed CHO-K1 cells or human primary hepatocytes (endogenous receptor)
Summary of the method: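 GCGR-overexpressing CHO-K1 cells or human primary hepatocytes in HBSS with 0.1% BSA and 800 nM IBMX, pre-incubated 30 min with serially diluted compounds (1% DMSO final), then stimulated 30 min at room temperature with glucagon at its EC50. cAMP measured by HTRF after 60 min lysis; IC50 by non-linear regression.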

[2] = competition with I125-glucagon 0.0625 nM, membrane fractions of GCGR overexpressed CHO-K1 cells
[3] = inhibition of glucagon (EC50 concentration) induced cAMP production

T1 sequence (P47871 26-477): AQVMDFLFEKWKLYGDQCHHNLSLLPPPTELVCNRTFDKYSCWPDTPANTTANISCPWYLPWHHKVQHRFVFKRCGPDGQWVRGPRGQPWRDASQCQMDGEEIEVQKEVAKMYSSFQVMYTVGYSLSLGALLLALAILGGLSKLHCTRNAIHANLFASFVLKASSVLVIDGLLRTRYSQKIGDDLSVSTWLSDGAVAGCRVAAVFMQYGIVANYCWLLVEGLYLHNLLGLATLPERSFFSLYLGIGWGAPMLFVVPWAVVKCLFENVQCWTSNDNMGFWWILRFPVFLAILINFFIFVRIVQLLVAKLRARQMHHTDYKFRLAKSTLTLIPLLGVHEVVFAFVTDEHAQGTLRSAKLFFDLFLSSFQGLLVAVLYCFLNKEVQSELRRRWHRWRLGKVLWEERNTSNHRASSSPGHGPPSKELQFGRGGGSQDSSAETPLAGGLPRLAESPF
T2 sequence (P47871 26-477): as above

| SMILES | IC50 (glucagon receptor (GCGR)) | IC50 cAMP [1] | IC50 (glucagon receptor (GCGR); [2]) | IC50 cAMP [1, 3] |
| --- | --- | --- | --- | --- |
| CC(C)COC[C@H](Cc1ccc(-c2ccccc2C(F)(F)F)cc1)Nc1ccc(C(=O)NCCC(=O)O)cc1 [Compound 19-29, (S)-3-(4-((1-isobutoxy-3-(2′-(trifluoromethyl)-[1,1′-biphenyl]-4-yl)propan-2-yl)amino)benzamido)propanoic Acid] | 2.12 µM | 0.871 µM | – | – |
| CC(C)COC[C@H](Cc1ccc(-c2cccc(OC(F)(F)F)c2)cc1)Nc1ccc(C(=O)NCCC(=O)O)cc1 [Compound 19-30, (S)-3-(4-((1-isobutoxy-3-(3′-(trifluoromethoxy)-[1,1′-biphenyl]-4-yl)propan-2-yl)amino)benzamido)propanoic Acid] | 0.548 µM | 1.104 µM | – | – |
| CCCC[C@@H](COc1ccc(-c2nnc(C(C)(C)C)o2)cc1)Nc1ccc(C(=O)NCCC(=O)O)cc1 [Compound 1-49, (S)-3-(4-((1-(4-(5-(tert-butyl)-1,3,4-oxadiazol-2-yl)phenoxy)hexan-2-yl)amino)benzamido)propanoic Acid] | – | – | 7.2 µM | 7.065 µM |
| CC(C)COC[C@H](Cc1ccc(-c2cc(F)c(F)c(F)c2)cc1)Nc1ccc(C(=O)NCCC(=O)O)cc1 [Compound 19-31, (S)-3-(4-((1-isobutoxy-3-(3′,4′,5′-trifluoro-[1,1′-biphenyl]-4-yl)propan-2-yl)amino)benzamido)propanoic Acid] | 0.5 µM | 1.341 µM | – | – |
| CCCC[C@@H](COc1cc(C)c(-c2cc3ccccc3o2)c(C)c1)Nc1ccc(C(=O)NCc2nnn[nH]2)cc1 [Compound 2-13, (S)—N-((1H-tetrazol-5-yl)methyl)-4-((1-(4-(benzofuran-2-yl)-3,5-dimethylphenoxy)hexan-2-yl)amino)benzamide] | – | – | 0.167 µM | 0.1485 µM |
| CCCC[C@@H](COc1ccc(-c2ccc(C(F)(F)F)cc2F)cc1)Nc1ccc(C(=O)NCCC(=O)O)cc1 [Compound 1-27, (S)-3-(4-((1-((2′-fluoro-4′-(trifluoromethyl)-[1,1′-biphenyl]-4-yl)oxy)hexan-2-yl)amino)benzamido)propanoic Acid] | – | – | 0.108 µM | 0.0965 µM |

Further lines, results first:

| IC50 (glucagon receptor (GCGR)) | IC50 cAMP [1] | IC50 (glucagon receptor (GCGR); [2]) | IC50 cAMP [1, 3] | SMILES |
| --- | --- | --- | --- | --- |
| – | – | 1.71 µM | 12.144 µM | CC(C)[C@@H](COc1ccc(-c2ccc(C(F)(F)F)cc2F)c(F)c1)Nc1ccc(C(=O)NCCS(=O)(=O)O)cc1 [Compound 8-2, (S)-2-(4-((1-((2,2′-difluoro-4′-(trifluoromethyl)-[1,1′-biphenyl]-4-yl)oxy)-3-methylbutan-2-yl)amino)benzamido)ethane-1-sulfonic Acid] |
| – | – | 0.445 µM | 10.157 µM | CC[C@H](C)[C@@H](COc1ccc(-c2ccc(F)cc2F)nn1)Nc1ccc(C(=O)NCCC(=O)O)cc1 [Compound 17-6, 3-(4-(((2S,3S)-1-((6-(2,4-difluorophenyl)pyridazin-3-yl)oxy)-3-methylpentan-2-yl)amino)benzamido)propanoic Acid] |
| – | – | 1.32 µM | 7.647 µM | CC(C)C[C@@H](COc1ccc(-c2ccc(C(F)(F)F)cc2)nn1)Nc1ccc(C(=O)NCCC(=O)O)cc1 [Compound 17-7, (S)-3-(4-((4-methyl-1-((6-(4-(trifluoromethyl)phenyl)pyridazin-3-yl)oxy)pentan-2-yl)amino)benzamido)propanoic Acid] |
| – | – | 0.149 µM | 0.6728 µM | CCCC[C@@H](COc1ccc(-c2cc3ccccc3o2)c(Cl)c1)Nc1ccc(C(=O)NCc2nnn[nH]2)cc1 [Compound 3-11, (S)—N-((1H-tetrazol-5-yl)methyl)-4-((1-(4-(benzofuran-2-yl)-3-chlorophenoxy)hexan-2-yl)amino)benzamide] |
| > 30 µM | >30 µM | – | – | CC(C)[C@@H](COc1nnc(-c2ccc(Cl)cc2Cl)o1)Nc1ccc(C(=O)NCCC(=O)O)cc1 [Compound 22-14, (S)-3-(4-((1-((5-(2,4-dichlorophenyl)-1,3,4-oxadiazol-2-yl)oxy)-3-methylbutan-2-yl)amino)benzamido)propanoic Acid] |
| 1.94 µM | 2.6 µM | – | – | CCOC(=O)CCNC(=O)c1ccc(N[C@@H](Cc2ccc(F)cc2)C(=O)Nc2ccc(-c3cc4ccccc4o3)cc2)cc1 [Compound 23-9, Ethyl (S)-3-(4-((1-((4-(benzofuran-2-yl)phenyl)amino)-3-(4-fluorophenyl)-1-oxopropan-2-yl)amino)benzamido)propanoate] |
| 6.32 µM | 5.186 µM | – | – | C[C@@H](Cc1ccc(-c2ccc(Cl)cc2Cl)cc1)Nc1ccc(C(=O)NCCC(=O)O)cc1 [Compound 19-2, (S)-3-(4-((1-(2′,4′-dichloro-[1,1′-biphenyl]-4-yl)propan-2-yl)amino)benzamido)propanoic Acid] |
| 5.28 µM | >30 µM | – | – | CC[C@H](C)[C@@H](COc1ccc(-c2ccc(F)cc2F)cn1)Nc1ccc(C(=O)NCCS(=O)(=O)O)cc1 [Compound 15-21, 2-(4-(((2S,3S)-1-((5-(2,4-difluorophenyl)pyridin-2-yl)oxy)-3-methylpentan-2-yl)amino)benzamido)ethane-1-sulfonic Acid] |
| – | – | 0.081 µM | 0.08946 µM | CC(C)(C)[C@@H](COc1ccc(-c2ccc(C(F)(F)F)cc2F)c(F)c1)Nc1ccc(C(=O)NCCC(=O)O)cc1 [Compound 8-23, (S)-3-(4-((1-((2,2′-difluoro-4′-(trifluoromethyl)-[1,1′-biphenyl]-4-yl)oxy)-3,3-dimethylbutan-2-yl)amino)benzamido)propanoic Acid] |
